In patent US6916812B2, “Alpha-aminoamide derivatives as melanocortin agonists” (Bristol-Myers Squibb Company, priority 2001, dated 2005):
Where two headings read alike, the source gives them in different places.

What was measured:
[1] = test system: Rodents; conditions: injected intracerebroventricularly (ICV); NPY, ob/ob, agouti, fasted feeding models; cited from earlier work
[2] = test system: male volunteers / patients with psychogenic erectile dysfunction; conditions: cited from earlier work
[3] = target: T1, cloned human MC4R (Homo sapiens, UniProt P32245); experiment: Membrane binding assay: competitive inhibition of [125I]NDP-α-MSH binding; conditions: for IC50: read-out: MC4R IC50; for inhibition at 10 µM: read-out: Displacement Rate (%) (at 10 μM)
T1 construct: made in house; host or cells: Hi5 insect cells (baculovirus infection); membrane preparation
T1 sequence (P32245 whole entry): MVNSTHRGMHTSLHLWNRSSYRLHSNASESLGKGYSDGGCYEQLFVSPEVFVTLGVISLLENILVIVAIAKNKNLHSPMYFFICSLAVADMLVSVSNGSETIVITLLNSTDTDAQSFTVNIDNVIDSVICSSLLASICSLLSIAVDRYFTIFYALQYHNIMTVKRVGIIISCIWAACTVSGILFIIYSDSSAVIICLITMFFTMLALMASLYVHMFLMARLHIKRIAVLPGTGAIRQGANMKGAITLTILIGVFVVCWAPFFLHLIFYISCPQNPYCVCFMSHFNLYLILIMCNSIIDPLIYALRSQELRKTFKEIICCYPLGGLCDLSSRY

[4] = intramuscular, 0.005-0.03 mg/kg, three normal male volunteers
[5] = subcutaneous, 0.025 mg/kg and 0.1 mg/kg, 10 patients with psychogenic erectile dysfunction
[6] = at 10 μM, [125I]NDP-α-MSH displacement

| Compound | IC50 [3] | inhibition at 10 µM [3, 6] | other results |
| --- | --- | --- | --- |
| MT-II |  |  | food intake [1]: reduced food intake; penile erections [2, 4]: intermittent non-painful penile erections; period of erections after dosing [2, 4]: 1 to 5 h; onset of transient erections [2, 5]: 50 to 180 min; responders with transient erections [2, 5]: 8 |
| SHU-9119 |  |  | food intake [1]: reverses this effect and can induce hyperphagia |
| CN[C@@H](Cc1ccc(OCc2ccccc2)cc1)C(=O)N1CCN(Cc2cccc(Cl)c2Cl)CC1 [Example 165] | < 1500 nM |  |  |
| N[C@@H](Cc1ccc(OCc2ccc(Cl)cc2)cc1)C(=O)N1CCN(Cc2cccc(Cl)c2Cl)CC1 [Example 183] | < 1500 nM |  | Displacement Rate (%) (at 10 μM) [3, 6]: +++ (+++ = 91-100) |
| COc1ccc2ccccc2c1CN1CCN(C(=O)[C@@H](N)Cc2ccc(OCc3ccccc3)cc2)CC1 [Example 106] | 1500 to 3000 nM | 71 to 90% |  |
| COc1ccccc1COc1ccc(C[C@H](N)C(=O)N2CCN(Cc3cccc(Cl)c3Cl)CC2)cc1 [Example 231] | > 3000 nM |  | Displacement Rate (%) (at 10 μM) [3, 6]: ++ (++ = 71-90) |
| N[C@@H](Cc1ccc(-c2cccc3c2oc2ccccc23)cc1)C(=O)N1CCN(Cc2cccc(Cl)c2Cl)CC1 [Example 336] | < 1500 nM |  | inhibition at 10 µM [3]: 91 to 100% |
| CCOc1cccc(CN2CCN(C(=O)[C@@H](N)Cc3ccc(OCc4ccccc4)cc3)CC2)c1O [Example 117] | > 3000 nM | 71 to 90% |  |
| CC(CCOc1ccc(C[C@H](N)C(=O)N2CCN(Cc3cccc(Cl)c3Cl)CC2)cc1)c1ccccc1 (stereo partly drawn) [Example 263] | < 1500 nM |  | Displacement Rate (%) (at 10 μM) [3, 6]: +++ (+++ = 91-100) |
| O=C([C@H](Cc1ccc(OCc2ccccc2)cc1)NCc1ccccc1)N1CCN(Cc2cccc(Cl)c2Cl)CC1 [Example 170] | > 3000 nM | 71 to 90% |  |
| CC(=O)c1ccc(-c2ccc(C[C@H](N)C(=O)N3CCN(Cc4cccc(Cl)c4Cl)CC3)cc2)s1 [Example 342] | 1500 to 3000 nM |  | inhibition at 10 µM [3]: 71 to 90% |
| N[C@@H](Cc1ccc(OCc2ccccc2)cc1)C(=O)N1CCN(Cc2cc(C(F)(F)F)cc(C(F)(F)F)c2)CC1 [Example 101] | < 1500 nM | 91 to 100% |  |
| N[C@@H](Cc1ccc(OCc2ccccc2)cc1)C(=O)N1CCCN(Cc2ccccc2C(F)(F)F)CC1 [Example 22] | > 3000 nM | 91 to 100% |  |
| N[C@@H](Cc1ccc(OCCc2cccc(C(F)(F)F)c2)cc1)C(=O)N1CCN(Cc2cccc(Cl)c2Cl)CC1 [Example 255] | < 1500 nM |  | Displacement Rate (%) (at 10 μM) [3, 6]: +++ (+++ = 91-100) |
| N[C@@H](Cc1ccc(-c2ccc(-c3ccccc3)cc2)cc1)C(=O)N1CCN(Cc2cccc(Cl)c2Cl)CC1 [Example 314] | 1500 to 3000 nM | 91 to 100% |  |
| N[C@@H](Cc1ccc(OCc2ccccc2)cc1)C(=O)N1CCN(Cc2cccc(Oc3cccc(C(F)(F)F)c3)c2)CC1 [Example 90] | < 1500 nM | 91 to 100% |  |
| N[C@@H](Cc1ccc(-c2cccc3c2Sc2ccccc2O3)cc1)C(=O)N1CCN(Cc2cccc(Cl)c2Cl)CC1 [Example 335] | < 1500 nM |  | inhibition at 10 µM [3]: 91 to 100% |
| N[C@@H](Cc1ccc(OCc2ccc([N+](=O)[O-])cc2)cc1)C(=O)N1CCN(Cc2cccc(Cl)c2Cl)CC1 [Example 223] | 1500 to 3000 nM |  | Displacement Rate (%) (at 10 μM) [3, 6]: +++ (+++ = 91-100) |
| CCOc1ccc(CN2CCCN(C(=O)[C@@H](N)Cc3ccc(OCc4ccccc4)cc3)CC2)c(OCC)c1C [Example 24] | < 1500 nM | 91 to 100% |  |
| Cc1cccc(-c2ccc(C[C@H](N)C(=O)N3CCN(Cc4cccc(Cl)c4Cl)CC3)cc2)c1 [Example 318] | 1500 to 3000 nM | 91 to 100% |  |
| O=C([C@H](Cc1ccc(OCc2ccccc2)cc1)NCCCN1CCOCC1)N1CCN(Cc2cccc(Cl)c2Cl)CC1 [Example 173] | < 1500 nM | 91 to 100% |  |
| CC(C)c1ccc(-c2ccc(C[C@H](N)C(=O)N3CCN(Cc4cccc(Cl)c4Cl)CC3)cc2)cc1 [Example 332] | > 3000 nM | 35 to 70% |  |
| Cc1ccsc1CN1CCCN(C(=O)[C@@H](N)Cc2ccc(OCc3ccccc3)cc2)CC1 [Example 48] | > 3000 nM | 35 to 70% |  |
| N[C@@H](Cc1ccc(OCc2ccccc2)cc1)C(=O)N1CCCN(Cc2ccc(Cl)c([N+](=O)[O-])c2)CC1 [Example 64] | > 3000 nM |  | inhibition at 10 µM [3]: 35 to 70% |
| N[C@@H](Cc1ccc(OCc2ccccc2)cc1)C(=O)N1CCN(Cc2ccc(OCc3ccc([N+](=O)[O-])cc3)cc2)CC1 [Example 110] | < 1500 nM | 71 to 90% |  |

| Compound | IC50 [3] | inhibition at 10 µM [3, 6] | other results |
| --- | --- | --- | --- |
| CCOc1ccc(COc2ccc(C[C@H](N)C(=O)N3CCN(Cc4cccc(Cl)c4Cl)CC3)cc2)cc1 [Example 209] | 1500 to 3000 nM | 91 to 100% |  |
| CC(Cc1cccc(C(F)(F)F)c1)N1CCN(C(=O)[C@@H](N)Cc2ccc(OCc3ccccc3)cc2)CC1 (stereo partly drawn) [Example 136] | > 3000 nM | 35 to 70% |  |
| Cc1ccccc1COc1ccc(C[C@H](N)C(=O)N2CCN(Cc3cccc(Cl)c3Cl)CC2)cc1 [Example 216] | 1500 to 3000 nM |  | Displacement Rate (%) (at 10 μM) [3, 6]: +++ (+++ = 91-100) |
| N[C@@H](Cc1ccc(OCc2ccccc2)cc1)C(=O)N1CCN(Cc2cccc(C(F)(F)F)c2)CC1 [Example 123] | > 3000 nM | 71 to 90% |  |
| N[C@@H](Cc1ccc(OCc2ccccc2)cc1)C(=O)N1CCN(Cc2ccccc2)CC1 [Example 141] | > 3000 nM | 35 to 70% |  |
| N[C@@H](Cc1ccc(OCCc2cccc(Cl)c2)cc1)C(=O)N1CCN(Cc2cccc(Cl)c2Cl)CC1 [Example 249] | < 1500 nM |  | Displacement Rate (%) (at 10 μM) [3, 6]: +++ (+++ = 91-100) |
| N[C@@H](Cc1ccc(OCc2ccccc2)cc1)C(=O)N1CCN(Cc2cccc(Oc3ccccc3)c2)CC1 [Example 103] | < 1500 nM | 91 to 100% |  |
| N[C@@H](Cc1ccc(OCc2ccccc2)cc1)C(=O)N1CCN(C2CCC(c3ccccc3)CC2)CC1 (stereo partly drawn) [Example 118] | > 3000 nM | 71 to 90% |  |
| N[C@@H](Cc1ccc(OCc2ccccc2)cc1)C(=O)N1CCCN(Cc2ccccc2Sc2ccc(Cl)cc2)CC1 [Example 2] | 1500 to 3000 nM | 91 to 100% |  |
| CCn1c2ccccc2c2cc(CN3CCCN(C(=O)[C@@H](N)Cc4ccc(OCc5ccccc5)cc4)CC3)ccc21 [Example 3] | < 1500 nM | 91 to 100% |  |
| N[C@@H](Cc1ccc(OCc2ccccc2)cc1)C(=O)N1CCCN(C2CCN(CCc3ccccc3)CC2)CC1 [Example 68] | > 3000 nM | 35 to 70% |  |
| CCN(CCOc1ccc(C[C@H](N)C(=O)N2CCN(Cc3cccc(Cl)c3Cl)CC2)cc1)c1cccc(C)c1 [Example 282] | < 1500 nM |  | Displacement Rate (%) (at 10 μM) [3, 6]: +++ (+++ = 91-100) |
| N[C@@H](Cc1ccc(OCCc2ccccc2OCc2ccccc2)cc1)C(=O)N1CCN(Cc2cccc(Cl)c2Cl)CC1 [Example 252] | < 1500 nM |  | Displacement Rate (%) (at 10 μM) [3, 6]: +++ (+++ = 91-100) |
| N[C@@H](Cc1ccc(OCCCCc2ccccc2)cc1)C(=O)N1CCN(Cc2cccc(Cl)c2Cl)CC1 [Example 262] | < 1500 nM |  | Displacement Rate (%) (at 10 μM) [3, 6]: +++ (+++ = 91-100) |
| N[C@@H](Cc1ccc(OCc2cc(C(F)(F)F)cc(C(F)(F)F)c2)cc1)C(=O)N1CCN(Cc2cccc(Cl)c2Cl)CC1 [Example 199] | 1500 to 3000 nM |  | Displacement Rate (%) (at 10 μM) [3, 6]: +++ (+++ = 91-100) |
| N[C@@H](Cc1ccc(OCc2ccccc2)cc1)C(=O)N1CCCN(Cc2ccnc3ccccc23)CC1 [Example 37] | > 3000 nM | 71 to 90% |  |
| CCCCc1ccc(CN2CCCN(C(=O)[C@@H](N)Cc3ccc(OCc4ccccc4)cc3)CC2)cc1 [Example 35] | 1500 to 3000 nM | 71 to 90% |  |
| N[C@@H](Cc1ccc(-c2ccc3c(c2)OCO3)cc1)C(=O)N1CCN(Cc2cccc(Cl)c2Cl)CC1 [Example 319] | 1500 to 3000 nM |  | Displacement Rate (%) (at 10 μM) [3, 6]: ++ (++ = 71-90) |
| CC(C)(C)c1ccc(CN2CCN(C(=O)[C@@H](N)Cc3ccc(OCc4ccccc4)cc3)CC2)cc1 [Example 112] | 1500 to 3000 nM | 71 to 90% |  |
| N[C@@H](Cc1ccc(OCc2ccccc2)cc1)C(=O)N1CCN(Cc2cccc(Cl)c2Cl)CC1 [Example 93] | < 1500 nM | 91 to 100% |  |
| N[C@@H](Cc1ccc(OCc2c(Cl)cccc2Cl)cc1)C(=O)N1CCN(Cc2cccc(Cl)c2Cl)CC1 [Example 226] | 1500 to 3000 nM |  | Displacement Rate (%) (at 10 μM) [3, 6]: ++ (++ = 71-90) |
| N[C@@H](Cc1ccc(OCc2ccccc2)cc1)C(=O)N1CCN(Cc2ccc3c(c2)Cc2ccccc2-3)CC1 [Example 83] | < 1500 nM | 91 to 100% |  |
| N[C@@H](Cc1ccc(-c2ccc3ccccc3c2)cc1)C(=O)N1CCN(Cc2cccc(Cl)c2Cl)CC1 [Example 293] | < 1500 nM | 91 to 100% |  |
| N[C@@H](Cc1ccc(OCc2ccccc2)cc1)C(=O)N1CCCN(Cc2ccc(C(F)(F)F)cc2)CC1 [Example 25] | < 1500 nM | 91 to 100% |  |
